# Results from patent US9833497B2, “Human originated EGF domain proteins and use of the same” (CHENGDU SOURCEBIO LIMITED-LIABILITY COMPANY, priority 2013, dated 2017).
# Tests used:
# Type in all cases: cell-based
# E. coli BL21 = experiment: MIC against Gram-negative bacteria: E. coli BL21; conditions: 5×10^5 CFU/mL
# In short: (§1)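 LB broth cultures at McFarland 0.5, spun down, resuspended, diluted to 5×10^5 CFU/mL final. Two-fold serial dilutions of purified human EGF domain proteins, triplicate. 37° C, 175 rpm shaking. Endpoint: no visible growth.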
# Pseudomonas aeruginosa = experiment: MIC against Gram-negative bacteria: Pseudomonas aeruginosa; conditions: 5×10^5 CFU/mL
# In short: as §1
# Enterobacter cloacae = experiment: MIC against Gram-negative bacteria: Enterobacter cloacae; conditions: 5×10^5 CFU/mL
# In short: as §1
# Proteus mirabilis = experiment: MIC against Gram-negative bacteria: Proteus mirabilis; conditions: 5×10^5 CFU/mL
# In short: as §1
# Aeromonas hydrophila = experiment: MIC against Gram-negative bacteria: Aeromonas hydrophila; conditions: 5×10^5 CFU/mL
# In short: as §1
# Moraxella catarrhalis = experiment: MIC against Gram-negative bacteria: Moraxella catarrhalis; conditions: 5×10^5 CFU/mL
# In short: as §1
# Proteus vulgaris = experiment: MIC against Gram-negative bacteria: Proteus vulgaris; conditions: 5×10^5 CFU/mL
# In short: as §1
# Klebsiella pneumonia = experiment: MIC against Gram-negative bacteria: Klebsiella pneumonia; conditions: 5×10^5 CFU/mL
# In short: as §1
# Serratia marcescens = experiment: MIC against Gram-negative bacteria: Serratia marcescens; conditions: 5×10^5 CFU/mL
# In short: as §1
# Citrobacter diversus = experiment: MIC against Gram-negative bacteria: Citrobacter diversus; conditions: 5×10^5 CFU/mL
# In short: as §1
# E. coli DH5α = experiment: Antibacterial activity: MIC and growth curve against E. coli DH5α in 96-well plate; conditions: minimal inhibitory concentration against E. coli DH5α; 96-well plate, 5×10^5 CFU/mL, 37° C., judged after 8 h
# In short: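 Log-phase DH5α (OD600 about 0.5, 37° C, 185 rpm in LB) was pelleted, resuspended in fresh LB and seeded at 5×10^5 CFU/mL with recombinant protein at 50, 25 and 12.5 μg/mL (two-fold series), in triplicate. Plates were shaken at 175 rpm, 37° C, and OD600 was read every 30 min. MIC was the lowest concentration with no growth.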
# [1] = E. coli BL21, 96-well plate, 37° C., 10 h
# [2] = Pseudomonas aeruginosa, 96-well plate, 37° C., 10 h
# [3] = Enterobacter cloacae, 96-well plate, 37° C., 10 h
# [4] = Proteus mirabilis, 96-well plate, 37° C., 10 h
# [5] = Aeromonas hydrophila, 96-well plate, 37° C., 10 h
# [6] = Moraxella catarrhalis, 96-well plate, 37° C., 10 h
# [7] = Proteus vulgaris, 96-well plate, 37° C., 10 h
# [8] = Klebsiella pneumonia, 96-well plate, 37° C., 10 h
# [9] = Serratia marcescens, 96-well plate, 37° C., 10 h
# [10] = Citrobacter diversus, 96-well plate, 37° C., 10 h
# [11] = E. coli BL21, 10 h cultivation at 37° C.
# [12] = P. aeruginosa, 10 h cultivation at 37° C.
# [13] = E. cloacae, 10 h cultivation at 37° C.
# [14] = P. mirabilis, 10 h cultivation at 37° C.
# [15] = A. hydrophila, 10 h cultivation at 37° C.
# [16] = M. catarrhalis, 10 h cultivation at 37° C.
# [17] = P. vulgaris, 10 h cultivation at 37° C.
# [18] = K. pneumonia, 10 h cultivation at 37° C.
# [19] = S. marcescens, 10 h cultivation at 37° C.
# [20] = C. diversus, 10 h cultivation at 37° C.
# [21] = Pseudomonas aeruginosa, 10 h cultivation at 37° C.
# [22] = Enterobacter cloacae, 10 h cultivation at 37° C.
# [23] = Proteus mirabilis, 10 h cultivation at 37° C.
# [24] = Aeromonas hydrophila, 10 h cultivation at 37° C.
# [25] = Moraxella catarrhalis, 10 h cultivation at 37° C.
# [26] = Proteus vulgaris, 10 h cultivation at 37° C.
# [27] = Klebsiella pneumonia, 10 h cultivation at 37° C.
# [28] = Serratia marcescens, 10 h cultivation at 37° C.
# [29] = Citrobacter diversus, 10 h cultivation at 37° C.
Substance,MIC (E. coli DH5α),MIC (μg/mL) E. coli BL21 (E. coli BL21; [11]),MIC (μg/mL) P. aeruginosa (Pseudomonas aeruginosa; [12]),MIC (μg/mL) E. cloacae (Enterobacter cloacae; [13]),MIC (μg/mL) P. mirabilis (Proteus mirabilis; [14]),MIC (μg/mL) A. hydrophila (Aeromonas hydrophila; [15]),MIC (μg/mL) M. catarrhalis (Moraxella catarrhalis; [16]),MIC (μg/mL) P. vulgaris (Proteus vulgaris; [17]),MIC (μg/mL) K. pneumonia (Klebsiella pneumonia; [18]),MIC (μg/mL) S. marcescens (Serratia marcescens; [19]),MIC (μg/mL) C. diversus (Citrobacter diversus; [20]),MIC against E. coli BL21 (E. coli BL21; [11]),MIC against P. aeruginosa (Pseudomonas aeruginosa; [21]),MIC against E. cloacae (Enterobacter cloacae; [22]),MIC against P. mirabilis (Proteus mirabilis; [23]),MIC against A. hydrophila (Aeromonas hydrophila; [24]),MIC against M. catarrhalis (Moraxella catarrhalis; [25]),MIC against P. vulgaris (Proteus vulgaris; [26]),MIC against K. pneumonia (Klebsiella pneumonia; [27]),MIC against S. marcescens (Serratia marcescens; [28]),further results
PRT86 (VTNACASGPCPPHADCRDLWQTFSCTCQPGYYGPGCV; listed as Homo sapiens),50 µg/mL,–,–,–,–,–,–,–,–,–,–,–,–,–,–,–,–,–,–,–,MIC (μg/mL) E. coli BL21 (E. coli BL21; [1]): 12.5 µg/mL; MIC (μg/mL) P. aeruginosa (Pseudomonas aeruginosa; [2]): 25 µg/mL; MIC (μg/mL) E. cloacae (Enterobacter cloacae; [3]): 25 µg/mL; MIC (μg/mL) P. mirabilis (Proteus mirabilis; [4]): 25 µg/mL; MIC (μg/mL) A. hydrophila (Aeromonas hydrophila; [5]): 12.5 µg/mL; MIC (μg/mL) M. catarrhalis (Moraxella catarrhalis; [6]): 12.5 µg/mL; MIC (μg/mL) P. vulgaris (Proteus vulgaris; [7]): 12.5 µg/mL; MIC (μg/mL) K. pneumonia (Klebsiella pneumonia; [8]): 12.5 µg/mL; MIC (μg/mL) S. marcescens (Serratia marcescens; [9]): 12.5 µg/mL; MIC (μg/mL) C. diversus (Citrobacter diversus; [10]): 25 µg/mL
PRT318 (DVDECEKNPCAGGECINNQGSYTCQCRAGYQSTLTRTECR; listed as Homo sapiens),12.5 µg/mL,–,–,–,–,–,–,–,–,–,–,–,–,–,–,–,–,–,–,–,MIC (E. coli BL21; [11]): 12.5 µg/mL; MIC (Pseudomonas aeruginosa; [12]): 12.5 µg/mL; MIC (Enterobacter cloacae; [13]): 12.5 µg/mL; MIC (Proteus mirabilis; [14]): 12.5 µg/mL; MIC (Aeromonas hydrophila; [15]): 50 µg/mL; MIC (Moraxella catarrhalis; [16]): 50 µg/mL; MIC (Proteus vulgaris; [17]): 25 µg/mL; MIC (Klebsiella pneumonia; [18]): 50 µg/mL; MIC (Serratia marcescens; [19]): 50 µg/mL; MIC (Citrobacter diversus; [20]): 12.5 µg/mL
PRT200 (NFSTCLSSKEGTICSGNGVCSNELKCVCNRHWIGSDCN; listed as Homo sapiens),12.5 µg/mL,25 µg/mL,50 µg/mL,12.5 µg/mL,12.5 µg/mL,25 µg/mL,25 µg/mL,50 µg/mL,25 µg/mL,12.5 µg/mL,50 µg/mL,–,–,–,–,–,–,–,–,–,–
PRT224 (DVNECDMGAPCEQRCFNSYGTFLCRCHQGYELHRDGFSCS; listed as Homo sapiens),25 µg/mL,12.5 µg/mL,25 µg/mL,12.5 µg/mL,12.5 µg/mL,12.5 µg/mL,12.5 µg/mL,12.5 µg/mL,12.5 µg/mL,50 µg/mL,12.5 µg/mL,–,–,–,–,–,–,–,–,–,–
PRT715 (DIDECSSGFPCSQQCINTYGTYKCLCTDGYEIQPDNPNGCK; listed as Homo sapiens),50 µg/mL,–,–,–,–,–,–,–,–,–,–,–,–,–,–,–,–,–,–,–,"MIC E. coli BL21 (E. coli BL21; 96-well plate, 37° C., 10 h): 50 µg/mL; MIC P. aeruginosa (Pseudomonas aeruginosa; 96-well plate, 37° C., 10 h): 25 µg/mL; MIC E. cloacae (Enterobacter cloacae; 96-well plate, 37° C., 10 h): 50 µg/mL; MIC P. mirabilis (Proteus mirabilis; 96-well plate, 37° C., 10 h): 25 µg/mL; MIC A. hydrophila (Aeromonas hydrophila; 96-well plate, 37° C., 10 h): 12.5 µg/mL; MIC M. catarrhalis (Moraxella catarrhalis; 96-well plate, 37° C., 10 h): 12.5 µg/mL; MIC P. vulgaris (Proteus vulgaris; 96-well plate, 37° C., 10 h): 50 µg/mL; MIC K. pneumonia (Klebsiella pneumonia; 96-well plate, 37° C., 10 h): 12.5 µg/mL; MIC S. marcescens (Serratia marcescens; 96-well plate, 37° C., 10 h): 12.5 µg/mL; MIC C. diversus (Citrobacter diversus; 96-well plate, 37° C., 10 h): 50 µg/mL"
PRT149 (LSNICLSHPCLNGQCIDTVSGYFCKCDSGWTGVNCT; listed as Homo sapiens),12.5 µg/mL,12.5 µg/mL,12.5 µg/mL,12.5 µg/mL,12.5 µg/mL,25 µg/mL,25 µg/mL,12.5 µg/mL,25 µg/mL,12.5 µg/mL,12.5 µg/mL,–,–,–,–,–,–,–,–,–,–
PRT1440 (DKDECSKDNGGCQHECVNTMGSYMCQCRNGFVLHDNKHDCK; listed as Homo sapiens),12.5 µg/mL,–,–,–,–,–,–,–,–,–,–,25 µg/mL,12.5 µg/mL,12.5 µg/mL,25 µg/mL,25 µg/mL,12.5 µg/mL,12.5 µg/mL,25 µg/mL,25 µg/mL,MIC against C. diversus (Citrobacter diversus; [29]): 25 µg/mL
PRT1241 (WSSTCRRPCQCNTAAARCEQATGACVCKPGWWGRRCS; listed as Homo sapiens),50 µg/mL,–,–,–,–,–,–,–,–,–,–,–,–,–,–,–,–,–,–,–,MIC against E. coli BL21 (E. coli BL21; [1]): 25 µg/mL; MIC against P. aeruginosa (Pseudomonas aeruginosa; [2]): 12.5 µg/mL; MIC against E. cloacae (Enterobacter cloacae; [3]): 12.5 µg/mL; MIC against P. mirabilis (Proteus mirabilis; [4]): 50 µg/mL; MIC against A. hydrophila (Aeromonas hydrophila; [5]): 50 µg/mL; MIC against M. catarrhalis (Moraxella catarrhalis; [6]): 25 µg/mL; MIC against P. vulgaris (Proteus vulgaris; [7]): 25 µg/mL; MIC against K. pneumonia (Klebsiella pneumonia; [8]): 50 µg/mL; MIC against S. marcescens (Serratia marcescens; [9]): 12.5 µg/mL; MIC against C. diversus (Citrobacter diversus; [10]): 12.5 µg/mL
PRT1432 (PARTCHSPAHSPCHIHAHCLFERNGAVSCQCNVGWAGNGNVCG; listed as Homo sapiens),25 µg/mL,–,–,–,–,–,–,–,–,–,–,12.5 µg/mL,50 µg/mL,50 µg/mL,50 µg/mL,25 µg/mL,25 µg/mL,25 µg/mL,12.5 µg/mL,12.5 µg/mL,MIC against C. diversus (Citrobacter diversus; [29]): 12.5 µg/mL
PRT1399 (ARVQCPDQCSGHGTYLPDTGLCSCDPNWMGPDCS; listed as Homo sapiens),12.5 µg/mL,–,–,–,–,–,–,–,–,–,–,12.5 µg/mL,12.5 µg/mL,25 µg/mL,25 µg/mL,12.5 µg/mL,12.5 µg/mL,12.5 µg/mL,12.5 µg/mL,25 µg/mL,MIC against C. diversus (Citrobacter diversus; [29]): 25 µg/mL
